Test results from patent publication US20080139664A1, “ANTI-GLYCATION AGENTS FOR PREVENTING AGE-, DIABETES-, AND SMOKING-RELATED COMPLICATIONS” (NATIONAL RESEARCH COUNCIL OF CANADA, priority 2001, published 2008).

How the values were obtained:
[1] = tested on: bovine serum albumin (BSA); assay: Fluorescamine assay of free primary amino groups of BSA incubated with D-ribose; type: biochemical; settings: free primary amino group on BSA after 5 days at 37° C.; agent at 16.8 times IC50; 64% without agent
Experimental: Fluorescamine assay (Yeboah F. et al., J. Agric. Food Chem. 48, 2766-2774 (2000)) was performed on incubated mixtures of BSA and D-ribose, with or without the identified anti-glycation agents. The mixtures contained BSA (0.075 mM protein concentration or 4.53 mM of Lys residue concentration) and D-ribose (50 mM). […] The fluorescamine assay determines the number of free lysine residues of BSA. In this experiment, the final volume of the incubation mixtures was 10 mL and the incubation time was 5 days at 37° C. Prior to the fluorescamine assay, the proteins were isolated by reverse phase HPLC. The protein content was determined using the Bio-Rad protein determination reagent (Bradford method). The fluorescamine assay was done in triplicate.

[2] = tested on: bovine serum albumin (BSA)
Experimental: During the glycation reaction between proteins and reducing sugars, a specific fluorescence with excitation and emission wavelength of 370 nm and 440 nm, respectively, is observed. […] The assay was based on the progressive development of the characteristic Maillard fluorescence (370 nm Ex and 440 nm Em) during the progress of the glycation reaction.
The final assay volume was 200 μl and each assay well contained 0.075 mM BSA, and 50 mM D-ribose. Compounds were assayed at 3 different concentration levels (0.003, 0.03, and 0.3 mg/mL) to determine the effect of concentration on inhibition. Samples were incubated for 5 days.
The Maillard fluorescence was directly measured from the reaction solution, except for the anti-glycants that quenched the Maillard fluorescence, which were analyzed by the earlier-described HPLC method.
Solutions were incubated in microtitre plates (96 wells) at 37° C. for 5 days in a closed system.
After one hour incubation at 37° C., fluorescence readings were taken.
The IC50 values of the compounds that quenched the fluorescence of the glycated BSA were analyzed by on-line monitoring of the fluorescence of the glycated BSA separated from the fluorescence quenching assay compound by RP-HPLC. The elution profile was monitored by UV-diode array and by fluorescence (λex=370 nm, λem=440 nm). […] The incubation conditions were the same as above.

lysozyme = assay: ESI-MS of lysozyme glycoforms after incubation with D-ribose; settings: 37° C., 5 days; for Peak area as % of total area of all glycoforms, 14,569: lysozyme + 2D-ribose − 2H2O (14,569 Da); for Peak area as % of total area of all glycoforms, 14,551: lysozyme + 2D-ribose − 3H2O (14,551 Da); for Peak area as % of total area of all glycoforms, 14,533: lysozyme + 2D-ribose − 5H2O (14,533 Da); for Peak area as % of total area of all glycoforms, 14,515: lysozyme + 2D-ribose − 6H2O (14,515 Da); for Peak area as % of total area of all glycoforms, 14,419: lysozyme + D-ribose − 2H2O (14,419 Da); for Peak area as % of total area of all glycoforms, 14,401: lysozyme + D-ribose − 3H2O (14,401 Da); for Peak area as % of total area of all glycoforms, 14,437: lysozyme + D-ribose − H2O (14,437 Da); for Peak area as % of total area of all glycoforms, 14,496: lysozyme + D-ribose − H2O with one carboxymethylated Lys residue (14,496 Da); for Peak area as % of total area of all glycoforms, 14,364: lysozyme with one carboxymethylated Lys residue (14,364 Da); for Peak area as % of total area of all glycoforms, 14,305: unmodified lysozyme (14,305 Da);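 as to all read-outs here: lysozyme incubated with D-ribose, with or without anti-glycation agents, then separated by reversed-phase HPLC and analysed by electrospray mass spectrometry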

O=c1cc(-c2ccccc2)oc2cc(O)c(O)c(O)c12 [Baicalein]
Unreacted amino group [1]: 48% | IC50 [2]: 49 µM | Peak area as % of total area of all glycoforms, 14,569 (lysozyme): 0.0% | Peak area as % of total area of all glycoforms, 14,551 (lysozyme): 0.0% | Peak area as % of total area of all glycoforms, 14,533 (lysozyme): 0.0% | Peak area as % of total area of all glycoforms, 14,515 (lysozyme): 0.0% | Peak area as % of total area of all glycoforms, 14,419 (lysozyme): 0.0% | Peak area as % of total area of all glycoforms, 14,401 (lysozyme): 0.0% | Peak area as % of total area of all glycoforms, 14,437 (lysozyme): 5.9% | Peak area as % of total area of all glycoforms, 14,496 (lysozyme): 0.0% | Peak area as % of total area of all glycoforms, 14,364 (lysozyme): 0.0% | Peak area as % of total area of all glycoforms, 14,305 (lysozyme): 94.1%

NCCc1ccc(O)c(O)c1 [Dopamine]
Unreacted amino group [1]: 60% | IC50 [2]: 62 µM | Peak area as % of total area of all glycoforms, 14,569 (lysozyme): 1.2% | Peak area as % of total area of all glycoforms, 14,551 (lysozyme): 0.0% | Peak area as % of total area of all glycoforms, 14,533 (lysozyme): 0.0% | Peak area as % of total area of all glycoforms, 14,515 (lysozyme): 0.0% | Peak area as % of total area of all glycoforms, 14,419 (lysozyme): 1.6% | Peak area as % of total area of all glycoforms, 14,401 (lysozyme): 1.3% | Peak area as % of total area of all glycoforms, 14,437 (lysozyme): 13.4% | Peak area as % of total area of all glycoforms, 14,496 (lysozyme): 0.0% | Peak area as % of total area of all glycoforms, 14,364 (lysozyme): 3.3% | Peak area as % of total area of all glycoforms, 14,305 (lysozyme): 79.2%

O=c1oc2c(O)c(O)cc3c(=O)oc4c(O)c(O)cc1c4c23 [Ellagic acid]
Unreacted amino group [1]: 52% | IC50 [2]: 40 µM | Peak area as % of total area of all glycoforms, 14,569 (lysozyme): 0.0% | Peak area as % of total area of all glycoforms, 14,551 (lysozyme): 0.0% | Peak area as % of total area of all glycoforms, 14,533 (lysozyme): 0.0% | Peak area as % of total area of all glycoforms, 14,515 (lysozyme): 0.0% | Peak area as % of total area of all glycoforms, 14,419 (lysozyme): 1.2% | Peak area as % of total area of all glycoforms, 14,401 (lysozyme): 0.0% | Peak area as % of total area of all glycoforms, 14,437 (lysozyme): 14.6% | Peak area as % of total area of all glycoforms, 14,496 (lysozyme): 0.0% | Peak area as % of total area of all glycoforms, 14,364 (lysozyme): 1.1% | Peak area as % of total area of all glycoforms, 14,305 (lysozyme): 83.1%

O=C1OC(CN2CCOCC2)CN1/N=C/c1ccc([N+](=O)[O-])o1 (stereo not shown) [Furaltadone]
Unreacted amino group [1]: 60% | IC50 [2]: 41 µM | maximum percentage of the inhibition [2]: 30%) | Peak area as % of total area of all glycoforms, 14,569 (lysozyme): 4.5% | Peak area as % of total area of all glycoforms, 14,551 (lysozyme): 2.7% | Peak area as % of total area of all glycoforms, 14,533 (lysozyme): 1.1% | Peak area as % of total area of all glycoforms, 14,515 (lysozyme): 0.0% | Peak area as % of total area of all glycoforms, 14,419 (lysozyme): 6.3% | Peak area as % of total area of all glycoforms, 14,401 (lysozyme): 0.0% | Peak area as % of total area of all glycoforms, 14,437 (lysozyme): 23.9% | Peak area as % of total area of all glycoforms, 14,496 (lysozyme): 0.0% | Peak area as % of total area of all glycoforms, 14,364 (lysozyme): 0.9% | Peak area as % of total area of all glycoforms, 14,305 (lysozyme): 60.6%

O=c1c(O)c(-c2ccccc2)oc2cc(O)cc(O)c12 [Galangin]
Unreacted amino group [1]: 64% | IC50 [2]: 110 µM | Peak area as % of total area of all glycoforms, 14,569 (lysozyme): 4.3% | Peak area as % of total area of all glycoforms, 14,551 (lysozyme): 5.2% | Peak area as % of total area of all glycoforms, 14,533 (lysozyme): 2.2% | Peak area as % of total area of all glycoforms, 14,515 (lysozyme): 1.0% | Peak area as % of total area of all glycoforms, 14,419 (lysozyme): 10.2% | Peak area as % of total area of all glycoforms, 14,401 (lysozyme): 0.8% | Peak area as % of total area of all glycoforms, 14,437 (lysozyme): 20.2% | Peak area as % of total area of all glycoforms, 14,496 (lysozyme): 0.0% | Peak area as % of total area of all glycoforms, 14,364 (lysozyme): 4.1% | Peak area as % of total area of all glycoforms, 14,305 (lysozyme): 48.0%

N[C@@H](Cc1ccc(O)c(O)c1)C(=O)O [L-DOPA]
Unreacted amino group [1]: 60% | IC50 [2]: 75 µM | Peak area as % of total area of all glycoforms, 14,569 (lysozyme): 3.0% | Peak area as % of total area of all glycoforms, 14,551 (lysozyme): 0.7% | Peak area as % of total area of all glycoforms, 14,533 (lysozyme): 0.8% | Peak area as % of total area of all glycoforms, 14,515 (lysozyme): 0.7% | Peak area as % of total area of all glycoforms, 14,419 (lysozyme): 2.1% | Peak area as % of total area of all glycoforms, 14,401 (lysozyme): 1.8% | Peak area as % of total area of all glycoforms, 14,437 (lysozyme): 21.1% | Peak area as % of total area of all glycoforms, 14,496 (lysozyme): 1.2% | Peak area as % of total area of all glycoforms, 14,364 (lysozyme): 3.9% | Peak area as % of total area of all glycoforms, 14,305 (lysozyme): 64.7%
